PubChem BioAssay AID192 (DTP/NCI, 2004)
Several values for one entry are separate records, joined by “and”; a condition that tells them apart may be missing. Equal values may be shown once. Toxic doses and inconclusive results are not listed. The calls were made as follows: active = survival T/C of 150% or more; inactive = T/C below 125% in these data. Peptide text beside a SMILES is read from it. * marks the point of attachment. Boc = CC(C)(C)OC(=O)*; NHNH2 = NN*

Test system: BDF1 mice, B16 melanoma ip, median survival T/C
Assay: NCI In Vivo Anticancer Drug Screen. Data for tumor model B16 Melanoma (intraperitoneal) in B6D2F1 (BDF1) mice
Details: endpoint: median survival time, higher = longer survival
Experimental: The antitumor activity of compounds was measured in mice bearing transplantable tumors. Survival or tumor size were measured and the results are expressed as the measurement made in the treated group (T) divided by the measurement made in the vehicle treated control group (C). The tumor model used in this assay is B16 Melanoma (intraperitoneal) in B6D2F1 (BDF1) mice

[1] = dose: 50.0 mg/kg/injection, schedule: Q01DX009 (ip), vehicle: saline
[2] = dose: 50.0 mg/kg/injection, schedule: Q04DX003 (ip), vehicle: saline
[3] = dose: 100.0 mg/kg/injection, schedule: Q04DX003 (ip), vehicle: saline
[4] = dose: 12.5 mg/kg/injection, schedule: Q01DX009 (ip), vehicle: Klucel (hydroxypropylcellulose) (HPC)
[5] = dose: 12.5 mg/kg/injection, schedule: Q01DX009 (ip), vehicle: saline with Tween-80
[6] = dose: 25.0 mg/kg/injection, schedule: Q01DX009 (ip), vehicle: saline with Tween-80
[7] = dose: 50.0 mg/kg/injection, schedule: Q01DX009 (ip), vehicle: saline with Tween-80
[8] = dose: 100.0 mg/kg/injection, schedule: Q01DX009 (ip), vehicle: saline with Tween-80
[9] = dose: 25.0 mg/kg/injection, schedule: Q01DX009 (ip), vehicle: Klucel (hydroxypropylcellulose) (HPC)
[10] = dose: 50.0 mg/kg/injection, schedule: Q01DX009 (ip), vehicle: Klucel (hydroxypropylcellulose) (HPC)
[11] = dose: 100.0 mg/kg/injection, schedule: Q01DX009 (ip), vehicle: Klucel (hydroxypropylcellulose) (HPC)
[12] = dose: 6.25 mg/kg/injection, schedule: Q01DX009 (ip), vehicle: saline
[13] = dose: 12.5 mg/kg/injection, schedule: Q01DX009 (ip), vehicle: saline
[14] = dose: 25.0 mg/kg/injection, schedule: Q01DX009 (ip), vehicle: saline
[15] = dose: 0.5 mg/kg/injection, schedule: Q01DX009 (ip), vehicle: saline
[16] = dose: 1.0 mg/kg/injection, schedule: Q01DX009 (ip), vehicle: saline
[17] = dose: 4.0 mg/kg/injection, schedule: Q01DX009 (ip), vehicle: saline
[18] = dose: 100.0 mg/kg/injection, schedule: Q01DX009 (ip), vehicle: saline
[19] = dose: 200.0 mg/kg/injection, schedule: Q01DX009 (ip), vehicle: saline
[20] = dose: 25.0 mg/kg/injection, schedule: Q04DX003 (ip), vehicle: Klucel (hydroxypropylcellulose) (HPC)
[21] = dose: 50.0 mg/kg/injection, schedule: Q04DX003 (ip), vehicle: Klucel (hydroxypropylcellulose) (HPC)
[22] = dose: 200.0 mg/kg/injection, schedule: Q01DX009 (ip), vehicle: Klucel (hydroxypropylcellulose) (HPC)
[23] = dose: 400.0 mg/kg/injection, schedule: Q01DX009 (ip), vehicle: Klucel (hydroxypropylcellulose) (HPC)

Measured: T/C

CCOC(=O)C(C#N)N=O (stereo unspecified)
inactive: [1] 111 % of control | [2] 106 % of control | [3] 113 % of control

CCOC(=O)C1C(=O)C(CN(CCCl)CCCl)C(=O)C(C(=O)OCC)C1c1ccc(O)cc1 (stereo unspecified)
active: [4] 158 % of control

CC(=O)Oc1c(C)c2c(O)c3c1C1=C(OCOC1=C(C)C3=O)C(C)=CC(C)(O)C(O)C(C)C(O)C1C(=O)OC(C(C)/C=C\C=C(C)C(=O)N2)C(C)C1O (stereo unspecified)
inactive: [1] 97 % of control

C1CC[N-]CC1.C1CC[N-]CC1.[Cl][Rh]([Cl])[Cl]
inactive: [5] 100 % of control | [6] 95 % of control | [7] 102 % of control | [8] 94 % of control | dose: 200.0 mg/kg/injection, schedule: Q01DX009 (ip), vehicle: saline with Tween-80 96 % of control

C[C@@H]1C[C@@]2(C)[C@@H](CC[C@@H]3[C@@H]2CC[C@]2(C)[C@@H](OC4CCCCO4)CC[C@@H]32)CC1=O (stereo partly specified)
inactive: [9] 105 % of control | [10] 100 % of control | [11] 100 % of control

CCNCCCN
inactive: [12] 102 % of control | [13] 102 % of control | [14] 94 % of control

COC(=O)C1C2CC3c4[nH]c5cc(OC)ccc5c4CCN3CC2CC(OC)C1OC (stereo unspecified)
inactive: dose: 0.25 mg/kg/injection, schedule: Q01DX009 (ip), vehicle: saline 102 % of control | [15] 94 % of control | [16] 105 % of control | dose: 1.56 mg/kg/injection, schedule: Q01DX009 (ip), vehicle: saline 100 % of control | dose: 3.12 mg/kg/injection, schedule: Q01DX009 (ip), vehicle: saline 98 % of control | [17] 94 % of control and 100 % of control | [12] 103 % of control | dose: 8.0 mg/kg/injection, schedule: Q01DX009 (ip), vehicle: saline 104 % of control | [13] 106 % of control | dose: 16.0 mg/kg/injection, schedule: Q01DX009 (ip), vehicle: saline 99 % of control | [14] 101 % of control | dose: 32.0 mg/kg/injection, schedule: Q01DX009 (ip), vehicle: saline 94 % of control

CC(C)CC(NC(=O)C(Cc1c[nH]c2ccccc12)NC(=O)OC(C)(C)C)C(=O)NN (stereo not drawn) (Boc-Trp-Leu-NHNH2; configuration not given here)
inactive: [14] 88 % of control | [1] 98 % of control | [18] 88 % of control | [19] 87 % of control

Cc1ccc(NC(=O)CCl)cc1Cl
inactive: [6] 97 % of control | [7] 102 % of control | [8] 101 % of control

CC1(C)C(C#N)C(=O)N=C(N)C1C(N)=O (stereo unspecified)
inactive: dose: 12.0 mg/kg/injection, schedule: Q04DX003 (ip), vehicle: Klucel (hydroxypropylcellulose) (HPC) 105 % of control | [20] 107 % of control | [21] 105 % of control | dose: 100.0 mg/kg/injection, schedule: Q04DX003 (ip), vehicle: Klucel (hydroxypropylcellulose) (HPC) 86 % of control and 100 % of control | dose: 200.0 mg/kg/injection, schedule: Q04DX003 (ip), vehicle: Klucel (hydroxypropylcellulose) (HPC) 91 % of control

CSc1ccc(NC(=O)Nc2ccccc2)cc1
inactive: [11] 102 % of control | [22] 98 % of control | [23] 95 % of control

CC1C=CCC(C)(C)C1 (stereo unspecified)
inactive: dose: 50.0 mg/kg/injection, schedule: Q01DX009 (ip), vehicle: other 96 % of control | [11] 111 % of control | dose: 100.0 mg/kg/injection, schedule: Q01DX009 (ip), vehicle: other 92 % of control | [3] 88 % of control | [22] 104 % of control | dose: 200.0 mg/kg/injection, schedule: Q04DX003 (ip), vehicle: saline 97 % of control | [23] 105 % of control | dose: 400.0 mg/kg/injection, schedule: Q04DX003 (ip), vehicle: saline 90 % of control

O=C(O)CCC(=O)Nc1ccccc1C(F)(F)F
inactive: dose: 12.5 mg/kg/injection, schedule: Q04DX003 (ip), vehicle: saline with Tween-80 108 % of control | dose: 25.0 mg/kg/injection, schedule: Q04DX003 (ip), vehicle: saline with Tween-80 111 % of control | dose: 50.0 mg/kg/injection, schedule: Q04DX003 (ip), vehicle: saline with Tween-80 113 % of control | dose: 100.0 mg/kg/injection, schedule: Q04DX003 (ip), vehicle: saline with Tween-80 108 % of control | dose: 200.0 mg/kg/injection, schedule: Q04DX003 (ip), vehicle: saline with Tween-80 105 % of control

CCCCc1ccc2nc(NC(=O)OC)[nH]c2c1
inactive: dose: 6.25 mg/kg/injection, schedule: Q01DX009 (ip), vehicle: saline with Tween-80 106 % of control | [5] 112 % of control | [6] 115 % of control

CC(=O)OCC12CCC(C)=CC1OC1C(=O)CC2(C)C12CO2 (stereo unspecified)
inactive: [15] 101 % of control | [16] 110 % of control | dose: 2.0 mg/kg/injection, schedule: Q01DX009 (ip), vehicle: saline 113 % of control | [17] 98 % of control

CS(=O)(=O)c1cc([N+](=O)[O-])cc([N+](=O)[O-])c1Cl
inactive: dose: 0.1 mg/kg/injection, schedule: Q01DX009 (ip), vehicle: saline 93 % of control | dose: 0.2 mg/kg/injection, schedule: Q01DX009 (ip), vehicle: saline 93 % of control | dose: 0.4 mg/kg/injection, schedule: Q01DX009 (ip), vehicle: saline 100 % of control | dose: 0.8 mg/kg/injection, schedule: Q01DX009 (ip), vehicle: saline 95 % of control | dose: 1.25 mg/kg/injection, schedule: Q01DX009 (ip), vehicle: saline with Tween-80 91 % of control | dose: 2.5 mg/kg/injection, schedule: Q01DX009 (ip), vehicle: saline with Tween-80 86 % of control

Cc1c(CCl)c(C)c(CCl)c(C)c1CCl
inactive: dose: 3.0 mg/kg/injection, schedule: Q01DX009 (ip), vehicle: Klucel (hydroxypropylcellulose) (HPC) 102 % of control | dose: 6.0 mg/kg/injection, schedule: Q01DX009 (ip), vehicle: Klucel (hydroxypropylcellulose) (HPC) 100 % of control | dose: 12.0 mg/kg/injection, schedule: Q01DX009 (ip), vehicle: Klucel (hydroxypropylcellulose) (HPC) 100 % of control

CC1CC(C)(C)N=C(CCC2CCCC23OCCO3)O1 (stereo unspecified)
inactive: [1] 108 % of control | [18] 111 % of control

C=C1N(C)c2ccc(Cl)cc2C1(C)C
inactive: [4] 90 % of control | [9] 90 % of control | [10] 88 % of control | [11] 87 % of control

CCC(=O)NCC1(c2ccccc2)CCN(CC2COc3ccccc3O2)CC1 (stereo unspecified)
inactive: dose: 25.0 mg/kg/injection, schedule: Q04DX003 (ip), vehicle: saline 116 % of control | [2] 107 % of control | [3] 105 % of control

C=C(CCCCC)C(=O)/C=C/c1ccc(Cl)cc1
inactive: dose: 75.0 mg/kg/injection, schedule: Q04DX003 (ip), vehicle: Klucel (hydroxypropylcellulose) (HPC) 94 % of control | dose: 150.0 mg/kg/injection, schedule: Q04DX003 (ip), vehicle: Klucel (hydroxypropylcellulose) (HPC) 94 % of control

C=CCC(CC)C(=O)Cl (stereo unspecified)
inactive: dose: 12.5 mg/kg/injection, schedule: Q04DX003 (ip), vehicle: other 117 % of control | dose: 25.0 mg/kg/injection, schedule: Q04DX003 (ip), vehicle: other 114 % of control | dose: 50.0 mg/kg/injection, schedule: Q04DX003 (ip), vehicle: other 96 % of control | dose: 100.0 mg/kg/injection, schedule: Q04DX003 (ip), vehicle: other 88 % of control

O=C(O)C(Cl)Cc1cnc[nH]1 (stereo unspecified)
inactive: [1] 111 % of control | [18] 111 % of control | [19] 112 % of control

O=C(Cl)c1ccc(OC(Cl)(Cl)Cl)cc1
inactive: [11] 100 % of control | [22] 93 % of control | [23] 86 % of control

O=C(Nc1ccccc1F)Nc1ccccc1Cl
inactive: [9] 96 % of control | [10] 92 % of control | [11] 92 % of control | [22] 95 % of control

CC(Br)C1(c2cccc([N+](=O)[O-])c2)OCCO1 (stereo unspecified)
inactive: [20] 94 % of control | [21] 92 % of control

Cc1ccc(C)c(C(O)C2CC2)c1 (stereo unspecified)
inactive: [7] 104 % of control | [8] 100 % of control
